Source: BindingDB's records for PubMed 33873056 (California Institute of Technology, 2021)

Target: Transitional endoplasmic reticulum ATPase (Homo sapiens) (UniProt P55072)
Assay: Inhibition of p97 (unknown origin) expressed in Escherichia coli BL21 (DE3) preincubated for 10 mins followed by ATP addition measured for 30 to 120 mins by malachite green based assay

Transitional endoplasmic reticulum ATPase (Homo sapiens), sequence (P55072 whole entry, looked up): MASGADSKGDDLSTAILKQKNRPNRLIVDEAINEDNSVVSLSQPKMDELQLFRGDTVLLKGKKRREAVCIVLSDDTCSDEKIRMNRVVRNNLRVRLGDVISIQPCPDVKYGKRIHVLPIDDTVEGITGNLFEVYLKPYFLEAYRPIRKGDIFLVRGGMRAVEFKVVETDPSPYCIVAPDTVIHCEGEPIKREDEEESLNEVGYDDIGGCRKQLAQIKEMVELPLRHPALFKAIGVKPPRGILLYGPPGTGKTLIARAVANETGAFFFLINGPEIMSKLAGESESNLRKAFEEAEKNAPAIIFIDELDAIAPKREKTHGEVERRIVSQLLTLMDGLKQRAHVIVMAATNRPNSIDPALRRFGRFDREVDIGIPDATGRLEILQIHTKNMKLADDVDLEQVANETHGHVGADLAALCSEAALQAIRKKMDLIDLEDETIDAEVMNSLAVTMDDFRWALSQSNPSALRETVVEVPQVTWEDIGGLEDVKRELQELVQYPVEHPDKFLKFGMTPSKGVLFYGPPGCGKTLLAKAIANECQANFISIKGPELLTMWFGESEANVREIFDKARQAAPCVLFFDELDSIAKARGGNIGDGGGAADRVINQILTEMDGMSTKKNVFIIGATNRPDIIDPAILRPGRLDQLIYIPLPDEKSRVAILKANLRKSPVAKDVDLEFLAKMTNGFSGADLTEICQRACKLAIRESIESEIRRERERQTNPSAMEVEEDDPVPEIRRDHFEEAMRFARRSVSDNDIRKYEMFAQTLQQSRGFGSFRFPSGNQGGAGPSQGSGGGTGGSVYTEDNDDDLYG

IC50: 15.3 µM
SMILES: C[C@H]1CCC/C=C/C(=O)c2c(O)cc(O)cc2CC(=O)O1 [DEHYDROCURVULARIN]
